Where “and” joins values, the source holds several entries; their conditions need not be identical. Identical values can stand only once.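 Results reflect a 48-hour exposure of cells in 96-well plates to compound at five concentrations. GI50 = concentration required for 50% inhibition of growth. TGI is the concentration that stops growth completely.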
Tests used:
Experiment in all cases: NCI anticancer screen, dose series, 48 h
[1] = tested on: T-47D breast
[2] = tested on: SK-OV-3 ovarian
[3] = tested on: CCRF-CEM leukemia
[4] = tested on: NCI-H226 lung
[5] = tested on: OVCAR-4 ovarian
[6] = tested on: SW-620 colon
[7] = tested on: MDA-MB-231 breast
[8] = tested on: K-562 leukemia
[9] = tested on: MOLT-4 leukemia
[10] = tested on: NCI/ADR-RES ovarian
[11] = tested on: EKVX NSCLC
[12] = tested on: NCI-H460 lung
[13] = tested on: HOP-62 NSCLC
[14] = tested on: UACC-62 melanoma
[15] = tested on: ACHN renal
[16] = tested on: PC-3 prostate
[17] = tested on: KM12 colon
[18] = tested on: CAKI-1 renal
[19] = tested on: M14 melanoma
[20] = tested on: BT-549 breast
[21] = tested on: MCF7 breast
[22] = tested on: OVCAR-5 ovarian
[23] = tested on: SNB-19 CNS
[24] = tested on: IGROV1 ovarian
[25] = tested on: SK-MEL-2 melanoma
[26] = tested on: SF-268 CNS
[27] = tested on: HL-60(TB) leukemia
[28] = tested on: COLO 205 colon
[29] = tested on: UACC-257 melanoma
[30] = tested on: TK-10 renal
[31] = tested on: OVCAR-3 ovarian
[32] = tested on: SR leukemia
[33] = tested on: HCC-2998 colon
[34] = tested on: U251 CNS
[35] = tested on: LOX IMVI melanoma
[36] = tested on: MDA-MB-435
[37] = tested on: SK-MEL-28 melanoma
[38] = tested on: SNB-75 CNS
[39] = tested on: DU-145 prostate
[40] = tested on: HCT-15 colon
[41] = tested on: HOP-92 NSCLC
[42] = tested on: HCT-116 colon
[43] = tested on: HS 578T breast
[44] = tested on: A498 renal
[45] = tested on: SN12C renal
[46] = tested on: NCI-H23 lung
[47] = tested on: OVCAR-8 ovarian
[48] = tested on: SF-539 CNS
[49] = tested on: SF-295 CNS
[50] = tested on: UO-31 renal
[51] = tested on: 786-0 renal
[52] = tested on: HT29 colon
[53] = tested on: SK-MEL-5 melanoma
[54] = tested on: A549 NSCLC
[55] = tested on: RXF 393 renal
[56] = tested on: MALME-3M melanoma
[57] = tested on: NCI-H522 lung

Cn1nc(/C=C\C(=O)N2CC(CCl)c3c2cc(N)c2ccccc32)cc1/C=C/C(=O)N1CC(CCl)c2c1cc(N)c1ccccc21 (stereo not given)
TGI [1]: > 100000 nM | TGI [2]: > 100000 nM | TGI [3]: < 10 nM | TGI [4]: < 10 nM | TGI [5]: > 100000 nM | TGI [6]: > 100000 nM | TGI [7]: < 10 nM | TGI [8]: > 100000 nM | TGI [9]: > 100000 nM | TGI [10]: 295 nM | TGI [11]: 96.5 nM | TGI [12]: > 100000 nM | TGI [13]: 41.1 nM | TGI [14]: < 10 nM | TGI [15]: > 100000 nM | TGI [16]: 59.6 nM | TGI [17]: > 100000 nM | TGI [18]: < 10 nM | TGI [19]: < 10 nM | TGI [20]: < 10 nM | TGI [21]: > 100000 nM | TGI [22]: < 10 nM | TGI [23]: 591 nM

C=C1C[C@](OC)([C@H](O)C(=O)N[C@@H](OC)[C@@H]2C[C@@H](O)C(C)(C)[C@@H](C[C@@H](COC)OC)O2)O[C@H](C)[C@@H]1C
GI50 [24]: 2.95 nM | TGI [24]: 16.1 nM | GI50 [25]: 2.3 nM | TGI [25]: 25 nM | GI50 [26]: 1.95 nM | TGI [26]: 5.38 nM | GI50 [27]: 4.11 nM | TGI [27]: > 1000 nM | GI50 [1]: 0.814 nM | TGI [1]: 5.48 nM | GI50 [2]: 1.94 nM | TGI [2]: 7.8 nM | GI50 [28]: 1.23 nM | TGI [28]: 3.42 nM | GI50 [29]: 2.11 nM | TGI [29]: 8.85 nM | GI50 [3]: 16.8 nM | TGI [3]: 361 nM | GI50 [30]: 1.41 nM | TGI [30]: 3.88 nM | GI50 [31]: 1.17 nM | TGI [31]: 3.68 nM | TGI [32]: > 1000 nM | GI50 [33]: 1.01 nM | TGI [33]: 2.85 nM | GI50 [34]: 1.75 nM | TGI [34]: 7.69 nM | GI50 [4]: 2.02 nM | TGI [4]: 5.82 nM | GI50 [5]: 2.27 nM | TGI [5]: 19.8 nM | GI50 [6]: 1.57 nM | TGI [6]: 5.08 nM | GI50 [35]: 1.21 nM | TGI [35]: 2.95 nM | GI50 [36]: 1.62 nM | TGI [36]: 5.07 nM | GI50 [37]: 1.29 nM | TGI [37]: 3.83 nM | GI50 [38]: 2.73 nM | TGI [38]: 8.25 nM | GI50 [39]: 1.45 nM | TGI [39]: 4.96 nM | GI50 [7]: 2.86 nM | TGI [7]: 8.37 nM | GI50 [40]: 2.84 nM | TGI [40]: 24.8 nM | GI50 [41]: 2.86 nM | TGI [41]: 8.89 nM | GI50 [9]: 4.37 nM | TGI [9]: > 1000 nM | GI50 [42]: 1.68 nM | TGI [42]: 10.4 nM | GI50 [10]: 14.1 nM and 29.7 nM | TGI [10]: 142 nM and 314 nM | GI50 [11]: 1.62 nM | TGI [11]: 6.67 nM | GI50 [43]: 1.36 nM | TGI [43]: 4.1 nM | GI50 [44]: 1.04 nM | TGI [44]: 2.88 nM | GI50 [12]: 0.72 nM | TGI [12]: 2.66 nM | GI50 [13]: 2.11 nM | TGI [13]: 10.2 nM | GI50 [45]: 1.74 nM | TGI [45]: 6.38 nM | GI50 [46]: 1.89 nM | TGI [46]: 5.44 nM | GI50 [47]: 3.22 nM | TGI [47]: 9.6 nM | GI50 [14]: 1.53 nM | TGI [14]: 5.24 nM | GI50 [48]: 0.166 nM | TGI [48]: 2.13 nM | GI50 [15]: 2.33 nM | TGI [15]: 11.4 nM | GI50 [49]: 0.353 nM | TGI [49]: 1.81 nM | GI50 [50]: 2.67 nM | TGI [50]: 29.5 nM | GI50 [51]: 2.2 nM | TGI [51]: 11.9 nM | GI50 [17]: 0.861 nM | TGI [17]: 3.39 nM | GI50 [52]: 0.865 nM | TGI [52]: 17.7 nM | GI50 [18]: 1.84 nM | TGI [18]: 5.44 nM | TGI [53]: 0.262 nM | GI50 [54]: 1.29 nM | TGI [54]: 5.58 nM | GI50 [19]: 1.78 nM | TGI [19]: 4.1 nM | GI50 [55]: 1.59 nM | TGI [55]: 4.65 nM | GI50 [56]: 0.693 nM | TGI [56]: 3.43 nM | GI50 [20]: 1.18 nM | TGI [20]: 3.26 nM | TGI [21]: 1.45 nM | GI50 [22]: 1.82 nM | TGI [22]: 6.89 nM | GI50 [57]: 1.94 nM | TGI [57]: 7.25 nM | GI50 [23]: 1.49 nM | TGI [23]: 6.45 nM
